Experimental data as given in patent US20070128217A1 (priority 2003, published 2007).

Key:
[1] = test system: antibodies in sera from SARS patients (sera 1a, 1b, 2, 6, 37, 62, London, SARS-yellow, SARS-green); assay type: binding, human; set-up: Binding of serum 6 to linear peptides of protein X1 of SARS-CoV Urbani / Binding of serum 37 to linear peptides of protein X1 of SARS-CoV Urbani / Binding of serum 6 to looped/cyclic peptide (PEPSCAN-ELISA) / Binding of serum 37 to looped/cyclic peptide (PEPSCAN-ELISA) / Binding of serum 37 to looped/cyclic peptides of protein X1 of SARS-CoV Urbani / Binding of serum 6 to linear peptides of protein X2 / Binding of serum 37 to linear peptides of protein X2 / Binding of serum 37 to looped/cyclic peptides of protein X2 of SARS-CoV Urbani / Binding of serum 6 to linear peptides of protein M of SARS-CoV Urbani / Binding of serum 37 to linear peptides of protein M of SARS-CoV Urbani / Binding of serum 6 to looped/cyclic peptides of protein M of SARS-CoV Urbani / Binding of serum 37 to looped/cyclic peptides of protein M of SARS-CoV Urbani / Binding of serum 6 to linear peptides of protein X3 of SARS-CoV Urbani / Binding of serum 37 to linear peptides of protein X3 of SARS-CoV Urbani / Binding of serum 37 to looped/cyclic peptides of protein X3 of SARS-CoV Urbani / Binding of serum 6 to linear peptides of protein X4 of SARS-CoV Urbani / Binding of serum 37 to linear peptides of protein X4 of SARS-CoV Urbani / Binding of serum 37 to looped/cyclic peptides of protein X4 of SARS-CoV Urbani / Binding of serum 6 to linear peptides of protein X5 of SARS-CoV Urbani / Binding of serum 37 to linear peptides of protein X5 of SARS-CoV Urbani / Binding of serum 37 to looped/cyclic peptides of protein X5 of SARS-CoV Urbani / Binding of serum 6 to linear peptides of protein N of SARS-CoV Urbani / Binding of serum 37 to linear peptides of protein N of SARS-CoV Urbani / Binding of serum 6 to linear peptide (PEPSCAN-ELISA) / Binding of serum 1a to looped/cyclic peptides of protein N of SARS-CoV Urbani / Binding of serum 1b to looped/cyclic peptides of protein N of SARS-CoV Urbani / Binding of serum 2 to looped/cyclic peptides of protein N of SARS-CoV Urbani / Binding of serum 6 to looped/cyclic peptides of protein N of SARS-CoV Urbani / Binding of serum 37 to looped/cyclic peptides of protein N of SARS-CoV Urbani / Binding of serum 62 to looped/cyclic peptides of protein N of SARS-CoV Urbani / Binding of serum London to looped/cyclic peptides of protein N of SARS-CoV Urbani / Binding of serum SARS-green to looped/cyclic peptides of protein N of SARS-CoV Urbani: unit not given here
[2] = test system: control sera (pooled serum of ten healthy LUMC hospital workers; commercial negative donor pooled serum from the Dutch bloodbank); assay type: binding, human; set-up: Binding of Control serum LUMC to linear peptides / Binding of Control serum Blood-bank to linear peptides / Binding of Control serum LUMC to looped peptides / Binding of Control Serum Blood-Bank to Looped peptides / Binding of Control serum LUMC to linear peptides of the protein M of SARS-CoV Urbani / Binding of Control serum Blood-bank to linear peptides of the protein M of SARS-CoV Urbani / Binding of Control serum LUMC to looped peptides of the protein M of SARS-CoV Urbani / Binding of Control Serum Blood-Bank to Looped peptides of the protein M of SARS-CoV Urbani: unit not given here
[3] = test system: rabbit serum obtained by immunizing a rabbit with the SARS-CoV strain Frankfurt 1; assay type: binding; set-up: Binding of a rabbit serum to linear peptides / Binding of a rabbit serum to looped peptides / Rabbit serum linear peptides / Rabbit serum looped peptides / Binding of a rabbit serum to linear peptides of protein N of SARS-CoV Urbani (Rabbit serum linear peptides) / Binding of a rabbit serum to looped/cyclic peptides of protein N of SARS-CoV Urbani (Rabbit serum looped peptides): unit not given here

YMAISPKFTTSLSLH
Binding of serum 1a to linear peptides of protein X2 [1]: 0.7
Binding of serum 1a to looped/cyclic peptides of protein X2 of SARS-CoV Urbani [1]: 0.6
Binding of serum 1b to linear peptides of protein X2 [1]: 0.6
Binding of serum 1b to looped/cyclic peptides of protein X2 of SARS-CoV Urbani [1]: 0.6
Binding of serum 2 to linear peptides of protein X2 [1]: 0.4
Binding of serum 2 to looped/cyclic peptides of protein X2 of SARS-CoV Urbani [1]: 0.4
Binding of serum 6 to linear peptides of protein X2 [1]: 0.4
Binding of serum 6 to looped/cyclic peptides of protein X2 of SARS-CoV Urbani [1]: 0.5
Binding of serum 37 to linear peptides of protein X2 [1]: 0.6
Binding of serum 37 to looped/cyclic peptides of protein X2 of SARS-CoV Urbani [1]: 0.5
Binding of serum 62 to linear peptides of protein X2 [1]: 0.6
Binding of serum 62 to looped/cyclic peptides of protein X2 of SARS-CoV Urbani [1]: 0.6
Binding of serum London to linear peptides of protein X2 [1]: 0.4
Binding of serum London to looped/cyclic peptides of protein X2 of SARS-CoV Urbani [1]: 0.4
Binding of serum SARS-green to linear peptides of protein X2 [1]: 0.5
Binding of serum SARS-green to looped/cyclic peptides of protein X2 of SARS-CoV Urbani [1]: 0.4
Binding of serum SARS-yellow to linear peptides of protein X2 [1]: 0.6
Binding of serum SARS-yellow to looped/cyclic peptides of protein X2 of SARS-CoV Urbani [1]: 0.4
Binding of Control Serum Blood-Bank to Looped peptides [2]: 0.7
Binding of Control serum Blood-bank to linear peptides [2]: 0.7
Binding of Control serum LUMC to linear peptides [2]: 0.4
Binding of Control serum LUMC to looped peptides [2]: 0.7
Binding of a rabbit serum to linear peptides [3]: 0.3
Binding of a rabbit serum to looped peptides [3]: 0.5

QQELYSPLFLIVAAL
Binding of serum 1a to linear peptides of protein X4 of SARS-CoV Urbani [1]: 0.7
Binding of serum 1a to looped/cyclic peptides of protein X4 of SARS-CoV Urbani [1]: 0.7
Binding of serum 1b to linear peptides of protein X4 of SARS-CoV Urbani [1]: 0.5
Binding of serum 1b to looped/cyclic peptides of protein X4 of SARS-CoV Urbani [1]: 0.4
Binding of serum 2 to linear peptides of protein X4 of SARS-CoV Urbani [1]: 0.5
Binding of serum 2 to looped/cyclic peptides of protein X4 of SARS-CoV Urbani [1]: 0.6
Binding of serum 6 to linear peptides of protein X4 of SARS-CoV Urbani [1]: 0.7
Binding of serum 6 to looped/cyclic peptides of protein X4 of SARS-CoV Urbani [1]: 0.4
Binding of serum 37 to linear peptides of protein X4 of SARS-CoV Urbani [1]: 0.7
Binding of serum 37 to looped/cyclic peptides of protein X4 of SARS-CoV Urbani [1]: 0.6
Binding of serum 62 to linear peptides of protein X4 of SARS-CoV Urbani [1]: 0.6
Binding of serum 62 to looped/cyclic peptides of protein X4 of SARS-CoV Urbani [1]: 0.6
Binding of serum London to linear peptides of protein X4 of SARS-CoV Urbani [1]: 0.8
Binding of serum London to looped/cyclic peptides of protein X4 of SARS-CoV Urbani [1]: 0.3
Binding of serum SARS-green to linear peptides of protein X4 of SARS-CoV Urbani [1]: 0.6
Binding of serum SARS-green to looped/cyclic peptides of protein X4 of SARS-CoV Urbani [1]: 0.5
Binding of serum SARS-yellow to linear peptides of protein X4 of SARS-CoV Urbani [1]: 0.6
Binding of serum SARS-yellow to looped/cyclic peptides of protein X4 of SARS-CoV Urbani [1]: 0.7
Binding of Control Serum Blood-Bank to Looped peptides [2]: 0.6
Binding of Control serum Blood-bank to linear peptides [2]: 0.5
Binding of Control serum LUMC to linear peptides [2]: 0.4
Binding of Control serum LUMC to looped peptides [2]: 0.6
Rabbit serum linear peptides [3]: 0.4
Rabbit serum looped peptides [3]: 0.4

GLMWLSYFVASFRLF
Binding of serum 1a to linear peptides of protein M of SARS-CoV Urbani [1]: 0.7
Binding of serum 1a to looped/cyclic peptides of protein M of SARS-CoV Urbani [1]: 0.6
Binding of serum 1b to linear peptides of protein M of SARS-CoV Urbani [1]: 0.4
Binding of serum 1b to looped/cyclic peptides of protein M of SARS-CoV Urbani [1]: 0.2
Binding of serum 2 to linear peptides of protein M of SARS-CoV Urbani [1]: 0.4
Binding of serum 2 to looped/cyclic peptides of protein M of SARS-CoV Urbani [1]: 0.6
Binding of serum 6 to linear peptides of protein M of SARS-CoV Urbani [1]: 0.6
Binding of serum 6 to looped/cyclic peptides of protein M of SARS-CoV Urbani [1]: 0.8
Binding of serum 37 to linear peptides of protein M of SARS-CoV Urbani [1]: 0.5
Binding of serum 37 to looped/cyclic peptides of protein M of SARS-CoV Urbani [1]: 0.5
Binding of serum 62 to linear peptides of protein M of SARS-CoV Urbani [1]: 0.6
Binding of serum 62 to looped/cyclic peptides of protein M of SARS-CoV Urbani [1]: 0.6
Binding of serum London to linear peptides of protein M of SARS-CoV Urbani [1]: 0.4
Binding of serum London to looped/cyclic peptides of protein M of SARS-CoV Urbani [1]: 0.3
Binding of serum SARS-green to linear peptides of protein M of SARS-CoV Urbani [1]: 0.3
Binding of serum SARS-green to looped/cyclic peptides of protein M of SARS-CoV Urbani [1]: 0.3
Binding of serum SARS-yellow to linear peptides of protein M of SARS-CoV Urbani [1]: 0.1
Binding of serum SARS-yellow to looped/cyclic peptides of protein M of SARS-CoV Urbani [1]: 0.7
Binding of Control Serum Blood-Bank to Looped peptides of the protein M of SARS-CoV Urbani [2]: 0.7
Binding of Control serum Blood-bank to linear peptides of the protein M of SARS-CoV Urbani [2]: 0.6
Binding of Control serum LUMC to linear peptides of the protein M of SARS-CoV Urbani [2]: 0.2
Binding of Control serum LUMC to looped peptides of the protein M of SARS-CoV Urbani [2]: 0.6
Rabbit serum linear peptides [3]: 0.2
Rabbit serum looped peptides [3]: 0.2
